Measurements published in patent US8742135B1, “Compound amycolamicin, method for producing the same, and use of the same” (Microbial Chemistry Research Foundation, priority 2009, dated 2014).
Converted amounts (≈) assume the structure as drawn.

Key:
Assay type in all cases: cell-based
[1] = system: A. pleuropneumoniae HPT-1; assay: MIC, Muller Hinton agar with Fields enrichment, 5% CO2 (Test Example 4); conditions: Actinobacillus pleuropneumoniae, HPT1, Muller Hinton agar + Fields enrichment 5% by volume
Method: (§1) According to the standard method of Japanese Society of Chemotherapy, the amycolamicin was measured for antimicrobial spectrum against bacteria causing pneumonia in domestic livestock other than those listed in Table 3 in the Muller Hinton agar medium supplemented with Fields enrichment (5% by volume) by the multiple dilution method in an atmosphere of 5% by volume CO2.

A. pleuropneumoniae YN = assay: as above; conditions: Actinobacillus pleuropneumoniae, Muller Hinton agar + Fields enrichment 5% by volume
Method: as §1

A. pleuropneumoniae 7H-3 = assay: as above; conditions: Actinobacillus pleuropneumoniae, 7H3, Muller Hinton agar + Fields enrichment 5% by volume
Method: as §1

A. pleuropneumoniae CH-1 = assay: as above; conditions: Actinobacillus pleuropneumoniae, CH1, Muller Hinton agar + Fields enrichment 5% by volume
Method: as §1

[2] = system: A. pleuropneumoniae O-223; assay: as above; conditions: Actinobacillus pleuropneumoniae, O223, Muller Hinton agar + Fields enrichment 5% by volume
Method: as §1

A. pleuropneumoniae Hi-1 = assay: as above; conditions: Actinobacillus pleuropneumoniae, HI1, Muller Hinton agar + Fields enrichment 5% by volume
Method: as §1

[3] = system: Actinobacillus pleuropneumoniae NB001; assay: as above; conditions: Muller Hinton agar + Fields enrichment 5% by volume
Method: as §1

A. pleuropneumoniae 6H-8 = assay: as above; conditions: Actinobacillus pleuropneumoniae, 6H8, Muller Hinton agar + Fields enrichment 5% by volume
Method: as §1

[4] = system: A. pleuropneumoniae SHP-17; assay: as above; conditions: Actinobacillus pleuropneumoniae, SHP17, Muller Hinton agar + Fields enrichment 5% by volume
Method: as §1

[5] = system: Histophilus somni 23N2359; assay: as above; conditions: Muller Hinton agar + Fields enrichment 5% by volume
Method: as §1

A. pleuropneumoniae M-1 = assay: as above; conditions: Actinobacillus pleuropneumoniae, M1, Muller Hinton agar + Fields enrichment 5% by volume
Method: as §1

[6] = system: A. pleuropneumoniae CH-2(H4024); assay: as above; conditions: Actinobacillus pleuropneumoniae, Muller Hinton agar + Fields enrichment 5% by volume
Method: as §1

[7] = system: A. pleuropneumoniae Shop1421; assay: as above; conditions: Actinobacillus pleuropneumoniae, Muller Hinton agar + Fields enrichment 5% by volume
Method: as §1

[8] = system: Streptococcus pneumoniae S-223; assay: MIC, Muller Hinton agar with sheep blood, 5% CO2 (Test Example 2); conditions: S223, Muller Hinton agar + sheep blood 5% by volume
H. infulenzae IID987 = assay: as above; conditions: Haemophilus, Muller Hinton agar + sheep blood 5% by volume
[9] = system: Pasteurella multocida No. 6; assay: MIC, brain heart infusion agar, multiple dilution method (Test Example 3); conditions: brain heart infusion agar medium
Method: (§2) According to the standard method of Japanese Society of Chemotherapy, the amycolamicin was measured for antimicrobial spectrum against bacteria causing pneumonia in domestic livestock in the brain heart infusion agar medium by the multiple dilution method.

P. multocida TS-8 = assay: as above; conditions: Pasteurella multocida, TS8, brain heart infusion agar medium
Method: as §2

P. multocida Kobe = assay: as above; conditions: Pasteurella multocida, brain heart infusion agar medium
Method: as §2

M. haemolytica N811 = assay: as above; conditions: Mannheimia haemolytica, brain heart infusion agar medium
Method: as §2

[10] = system: Mannheimia haemolytica N791; assay: as above; conditions: brain heart infusion agar medium
Method: as §2

P. multocida M-17 = assay: as above; conditions: Pasteurella multocida, M17, brain heart infusion agar medium
Method: as §2

H. infulenzae IID988 = assay: MIC, Muller Hinton agar with sheep blood, 5% CO2 (Test Example 2); conditions: Haemophilus, Muller Hinton agar + sheep blood 5% by volume
H. infulenzae IID985 = assay: as above; conditions: Haemophilus, Muller Hinton agar + sheep blood 5% by volume
[11] = system: Haemophilus infulenzae IID938; assay: as above; conditions: Muller Hinton agar + sheep blood 5% by volume
S. aureus MS9610 = assay: MIC, Muller Hinton agar, multiple dilution method (Test Example 1); conditions: Staphylococcus aureus, Muller Hinton agar medium
Method: (§3) According to the standard method of Japanese Society of Chemotherapy, the amycolamicin was measured for antimicrobial spectrum against various microorganisms including drug-resistant bacteria (e.g., methicilline resistant bacteria and vancomycin resistant bacteria) in the Muller Hinton agar medium by the multiple dilution method.

Ent. faecium JCM 5804 = assay: as above; conditions: Enterococcus faecium, JCM5804, Muller Hinton agar medium
Method: as §3

E. coli K-12 = assay: as above; conditions: Escherichia coli, K12, Muller Hinton agar medium
Method: as §3

Escherichia coli NIHJ = assay: as above; conditions: Muller Hinton agar medium
Method: as §3

[12] = system: Ent. faecalis NCTC12201(VRE); assay: as above; conditions: Enterococcus faecalis, Muller Hinton agar medium
Method: as §3

S. aureus TY-04282(MRSA) = assay: as above; conditions: Staphylococcus aureus, Muller Hinton agar medium
Method: as §3

S. aureus MS16526(MRSA) = assay: as above; conditions: Staphylococcus aureus, Muller Hinton agar medium
Method: as §3

[13] = system: Klebsiella pneumoniae PC1602; assay: as above; conditions: Muller Hinton agar medium
Method: as §3

[14] = system: Ent faecium NCTCI12202(VRE); assay: as above; conditions: Enterococcus, Muller Hinton agar medium
Method: as §3

S. aureus MRSA No.5 = assay: as above; conditions: Staphylococcus aureus, Muller Hinton agar medium
Method: as §3

[15] = system: Staphylococcus aureus FDA209P; assay: as above; conditions: Muller Hinton agar medium
Method: as §3

[16] = system: Ent. faecium NCTCI12204(VRE); assay: as above; conditions: Enterococcus faecium, Muller Hinton agar medium
Method: as §3

S. aureus MRSA No.17 = assay: as above; conditions: Staphylococcus aureus, Muller Hinton agar medium
Method: as §3

[17] = system: Ent. faecalis NCTC12203(VRE); assay: as above; conditions: Enterococcus faecalis, Muller Hinton agar medium
Method: as §3

[18] = system: Enterococcus faecalis JCM 5803; assay: as above; conditions: JCM5803, Muller Hinton agar medium
Method: as §3

S. aureus Smith = assay: as above; conditions: Staphylococcus aureus, Muller Hinton agar medium
Method: as §3

H. infulenzae T196 = assay: MIC, Muller Hinton agar with sheep blood, 5% CO2 (Test Example 2); conditions: Haemophilus, Muller Hinton agar + sheep blood 5% by volume
H. infulenzae IID986 = assay: as above; conditions: Haemophilus, Muller Hinton agar + sheep blood 5% by volume

`C=C1CCC(OC2CC(O)(C(C)NC(=O)c3[nH]c(C)c(Cl)c3Cl)C(O)C(C)O2)C2C=CC(C)C(C(=O)C3=C(O)C(C(C)C)N(C4OC(C)C(OC(N)=O)C(OC(C)=O)C4OC)C3=O)C12` (stereo not drawn) [amycolamicin] showed an MIC [1] of 1.56 µg/mL, an MIC (A. pleuropneumoniae YN) of 0.78 µg/mL and an MIC (A. pleuropneumoniae 7H-3) of 1.56 µg/mL. It also gave an MIC (A. pleuropneumoniae CH-1) of 1.56 µg/mL, an MIC [2] of 1.56 µg/mL and an MIC (A. pleuropneumoniae Hi-1) of 3.13 µg/mL. The MIC [3] was 1.56 µg/mL, the MIC (A. pleuropneumoniae 6H-8) was 1.56 µg/mL and the MIC [4] was 1.56 µg/mL. It also gave an MIC [5] of 0.2 µg/mL, an MIC (A. pleuropneumoniae M-1) of 0.78 µg/mL and an MIC [6] of 1.56 µg/mL. It also gave an MIC [7] of 3.13 µg/mL, an MIC [8] of 0.39 µg/mL and an MIC (H. infulenzae IID987) of 0.78 µg/mL. It also gave an MIC [9] of 1.56 µg/mL (≈ 1.66 µM), an MIC (P. multocida TS-8) of 0.78 µg/mL (≈ 0.83 µM) and an MIC (P. multocida Kobe) of 0.78 µg/mL (≈ 0.83 µM). The MIC (M. haemolytica N811) was 0.78 µg/mL (≈ 0.83 µM), the MIC [10] was 0.78 µg/mL (≈ 0.83 µM) and the MIC (P. multocida M-17) was 0.78 µg/mL (≈ 0.83 µM). It also gave an MIC (H. infulenzae IID988) of 0.78 µg/mL, an MIC (H. infulenzae IID985) of 0.78 µg/mL and an MIC [11] of 0.78 µg/mL. It also gave an MIC (S. aureus MS9610) of 0.39 µg/mL (≈ 0.415 µM), an MIC (Ent. faecium JCM 5804) of 0.78 µg/mL (≈ 0.83 µM) and an MIC (E. coli K-12) of 12.5 µg/mL (≈ 13.3 µM). The MIC (Escherichia coli NIHJ) was 12.5 µg/mL (≈ 13.3 µM), the MIC [12] was 0.1 µg/mL (≈ 0.106 µM) and the MIC (S. aureus TY-04282(MRSA)) was 0.39 µg/mL (≈ 0.415 µM). It also gave an MIC (S. aureus MS16526(MRSA)) of 0.39 µg/mL (≈ 0.415 µM), an MIC [13] of 6.25 µg/mL (≈ 6.65 µM) and an MIC [14] of 0.78 µg/mL (≈ 0.83 µM). For the same compound, the MIC (S. aureus MRSA No.5) was 0.39 µg/mL (≈ 0.415 µM), the MIC [15] was 0.39 µg/mL (≈ 0.415 µM) and the MIC [16] was 0.78 µg/mL (≈ 0.83 µM). The MIC (S. aureus MRSA No.17) was 0.39 µg/mL (≈ 0.415 µM), the MIC [17] was 0.2 µg/mL (≈ 0.213 µM) and the MIC [18] was 0.2 µg/mL (≈ 0.213 µM). The MIC (S. aureus Smith) was 0.39 µg/mL (≈ 0.415 µM), the MIC (H. infulenzae T196) was 0.2 µg/mL and the MIC (H. infulenzae IID986) was 0.78 µg/mL.
